Assays:
Test in all cases: KAM-matrix competition in K562 lysate;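 as to 0.001 uM KAM: median log10 fold change of treatment over DMSO control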;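 as to 0.01 uM KAM: median log10 fold change of treatment over DMSO control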;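 as to 0.1 uM KAM: median log10 fold change of treatment over DMSO control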;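 as to 1 uM KAM: median log10 fold change of treatment over DMSO control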;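 as to 10 uM KAM: median log10 fold change of treatment over DMSO control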
Type in all cases: binding
ACTR2 = biological target: T1, ACTR2 (Homo sapiens, UniProt P61160);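 as to 0.001 uM KAM: median log10 fold change of treatment over DMSO control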;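 as to 0.01 uM KAM: median log10 fold change of treatment over DMSO control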;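 as to 0.1 uM KAM: median log10 fold change of treatment over DMSO control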;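 as to 1 uM KAM: median log10 fold change of treatment over DMSO control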;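 as to 10 uM KAM: median log10 fold change of treatment over DMSO control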
T1 construct: endogenous in cells; host or cells: K562
Method: (§1) Supplement 12953_2017_125_MOESM1_ESM.zip/MS_Supp Info.xlsx, sheet "KAM" | column: 10 uM KAM; 1 uM KAM; 0.1 uM KAM; 0.01 uM KAM; 0.001 uM KAM; RB50

CDK10 = biological target: T2, CDK10 (Homo sapiens, UniProt Q15131)
T2 construct: endogenous in cells; host or cells: K562
Method: as §1

LATS1 = biological target: T3, LATS1 (Homo sapiens, UniProt O95835)
T3 construct: endogenous in cells; host or cells: K562
T3 sequence (O95835 1-1130): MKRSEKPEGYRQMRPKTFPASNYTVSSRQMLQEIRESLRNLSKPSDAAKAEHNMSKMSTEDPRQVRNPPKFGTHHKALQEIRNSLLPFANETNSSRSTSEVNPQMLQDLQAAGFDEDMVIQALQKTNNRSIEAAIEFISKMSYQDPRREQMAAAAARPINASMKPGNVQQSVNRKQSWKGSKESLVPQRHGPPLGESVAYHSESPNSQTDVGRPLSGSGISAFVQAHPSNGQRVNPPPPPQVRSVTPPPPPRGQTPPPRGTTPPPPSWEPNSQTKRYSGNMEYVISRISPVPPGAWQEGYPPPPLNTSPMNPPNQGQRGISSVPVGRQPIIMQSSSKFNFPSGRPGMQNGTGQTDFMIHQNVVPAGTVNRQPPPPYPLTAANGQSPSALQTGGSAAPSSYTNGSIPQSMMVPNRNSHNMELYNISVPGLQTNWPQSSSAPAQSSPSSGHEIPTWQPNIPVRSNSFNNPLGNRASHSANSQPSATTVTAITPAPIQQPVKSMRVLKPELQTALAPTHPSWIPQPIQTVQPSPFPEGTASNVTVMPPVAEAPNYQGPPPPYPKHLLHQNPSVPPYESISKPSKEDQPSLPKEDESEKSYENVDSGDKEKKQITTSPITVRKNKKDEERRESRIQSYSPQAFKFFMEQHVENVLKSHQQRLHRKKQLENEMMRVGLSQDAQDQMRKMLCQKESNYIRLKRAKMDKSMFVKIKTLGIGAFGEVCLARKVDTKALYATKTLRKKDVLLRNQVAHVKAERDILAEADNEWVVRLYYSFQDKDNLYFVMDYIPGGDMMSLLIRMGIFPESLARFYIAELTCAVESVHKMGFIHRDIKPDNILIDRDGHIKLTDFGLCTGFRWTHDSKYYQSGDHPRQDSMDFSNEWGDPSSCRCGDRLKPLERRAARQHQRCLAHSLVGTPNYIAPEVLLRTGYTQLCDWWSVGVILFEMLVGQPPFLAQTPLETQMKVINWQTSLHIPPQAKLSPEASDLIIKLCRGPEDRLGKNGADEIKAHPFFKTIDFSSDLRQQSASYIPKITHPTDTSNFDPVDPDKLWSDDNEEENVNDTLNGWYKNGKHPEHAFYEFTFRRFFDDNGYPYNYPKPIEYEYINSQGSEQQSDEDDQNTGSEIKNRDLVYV
Method: as §1

MST1R = biological target: T4, MST1R (Homo sapiens, UniProt Q04912);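 as to 0.001 uM KAM: median log10 fold change of treatment over DMSO control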;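 as to 0.01 uM KAM: median log10 fold change of treatment over DMSO control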;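 as to 0.1 uM KAM: median log10 fold change of treatment over DMSO control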;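 as to 1 uM KAM: median log10 fold change of treatment over DMSO control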;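 as to 10 uM KAM: median log10 fold change of treatment over DMSO control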
T4 construct: endogenous in cells; host or cells: K562
Method: as §1

PKN2 = biological target: T5, PKN2 (Homo sapiens, UniProt Q16513);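 as to 0.001 uM KAM: median log10 fold change of treatment over DMSO control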;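 as to 0.01 uM KAM: median log10 fold change of treatment over DMSO control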;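 as to 0.1 uM KAM: median log10 fold change of treatment over DMSO control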;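 as to 1 uM KAM: median log10 fold change of treatment over DMSO control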;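 as to 10 uM KAM: median log10 fold change of treatment over DMSO control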
T5 construct: endogenous in cells; host or cells: K562
Method: as §1

PTK2B = biological target: T6, PTK2B (Homo sapiens, UniProt Q14289)
T6 construct: endogenous in cells; host or cells: K562
Method: as §1

STK10 = biological target: T7, STK10 (Homo sapiens, UniProt O94804)
T7 construct: endogenous in cells; host or cells: K562 cell lysate
Method: as §1

UHMK1 = biological target: T8, UHMK1 (Homo sapiens, UniProt Q8TAS1);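 as to 0.001 uM KAM: median log10 fold change of treatment over DMSO control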;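 as to 0.01 uM KAM: median log10 fold change of treatment over DMSO control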;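 as to 0.1 uM KAM: median log10 fold change of treatment over DMSO control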;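 as to 1 uM KAM: median log10 fold change of treatment over DMSO control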;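 as to 10 uM KAM: median log10 fold change of treatment over DMSO control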
T8 construct: endogenous in cells; host or cells: K562
T8 sequence (Q8TAS1 1-419): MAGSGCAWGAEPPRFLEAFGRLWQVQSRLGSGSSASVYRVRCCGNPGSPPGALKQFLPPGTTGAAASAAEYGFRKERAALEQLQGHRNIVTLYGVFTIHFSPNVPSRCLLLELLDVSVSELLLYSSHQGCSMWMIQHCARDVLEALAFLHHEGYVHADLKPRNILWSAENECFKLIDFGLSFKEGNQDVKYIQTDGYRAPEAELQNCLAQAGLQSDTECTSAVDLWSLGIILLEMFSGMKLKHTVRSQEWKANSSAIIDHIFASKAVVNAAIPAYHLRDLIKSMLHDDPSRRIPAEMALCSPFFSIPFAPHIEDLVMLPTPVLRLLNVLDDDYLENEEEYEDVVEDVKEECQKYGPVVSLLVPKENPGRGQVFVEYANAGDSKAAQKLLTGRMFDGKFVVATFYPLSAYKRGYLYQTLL
Method: as §1

ZAK = biological target: T9, ZAK (Homo sapiens, UniProt Q9NYL2)
T9 construct: endogenous in cells; host or cells: K562 cell lysate
Method: as §1

[1] = KAM 0.001-10 uM, read-out: RB50 (the source's name)
[2] = read-out: RB50 (the source's name)

T2 sequence (Q15131 whole entry): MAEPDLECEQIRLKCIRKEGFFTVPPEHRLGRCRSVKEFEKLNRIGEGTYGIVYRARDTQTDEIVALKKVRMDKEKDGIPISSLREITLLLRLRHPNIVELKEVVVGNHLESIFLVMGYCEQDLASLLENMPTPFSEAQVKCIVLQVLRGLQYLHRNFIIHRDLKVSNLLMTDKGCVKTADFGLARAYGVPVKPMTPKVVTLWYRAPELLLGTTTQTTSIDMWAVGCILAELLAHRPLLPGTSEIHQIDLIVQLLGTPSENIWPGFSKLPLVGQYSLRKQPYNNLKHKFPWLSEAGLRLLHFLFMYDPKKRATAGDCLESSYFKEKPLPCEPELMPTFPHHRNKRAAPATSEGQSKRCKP
T6 sequence (Q14289 whole entry): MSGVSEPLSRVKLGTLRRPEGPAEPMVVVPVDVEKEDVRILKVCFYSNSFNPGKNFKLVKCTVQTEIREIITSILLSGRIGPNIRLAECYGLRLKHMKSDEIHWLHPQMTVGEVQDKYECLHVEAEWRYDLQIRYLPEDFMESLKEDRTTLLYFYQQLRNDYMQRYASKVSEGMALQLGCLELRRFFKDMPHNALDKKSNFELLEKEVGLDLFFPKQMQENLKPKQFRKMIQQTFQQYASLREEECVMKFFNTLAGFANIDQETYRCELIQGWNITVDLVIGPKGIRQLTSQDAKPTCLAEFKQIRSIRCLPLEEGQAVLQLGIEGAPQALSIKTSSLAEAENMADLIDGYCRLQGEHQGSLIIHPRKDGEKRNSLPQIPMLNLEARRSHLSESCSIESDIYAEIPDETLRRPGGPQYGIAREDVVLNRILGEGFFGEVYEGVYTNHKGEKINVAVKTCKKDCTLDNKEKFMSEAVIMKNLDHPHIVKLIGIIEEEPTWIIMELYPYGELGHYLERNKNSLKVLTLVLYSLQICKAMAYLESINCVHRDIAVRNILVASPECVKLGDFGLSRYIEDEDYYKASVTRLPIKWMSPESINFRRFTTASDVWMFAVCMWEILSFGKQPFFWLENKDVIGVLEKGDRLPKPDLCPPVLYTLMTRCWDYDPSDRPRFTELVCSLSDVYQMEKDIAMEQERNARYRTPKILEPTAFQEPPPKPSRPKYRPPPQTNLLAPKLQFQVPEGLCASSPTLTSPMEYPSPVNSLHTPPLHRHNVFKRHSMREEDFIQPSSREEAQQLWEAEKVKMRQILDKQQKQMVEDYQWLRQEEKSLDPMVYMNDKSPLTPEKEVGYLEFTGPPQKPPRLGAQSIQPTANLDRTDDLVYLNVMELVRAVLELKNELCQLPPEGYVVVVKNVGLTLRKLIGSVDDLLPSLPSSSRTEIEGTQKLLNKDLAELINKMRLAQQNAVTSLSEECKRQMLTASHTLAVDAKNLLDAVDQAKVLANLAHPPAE
T5 sequence (Q16513 whole entry): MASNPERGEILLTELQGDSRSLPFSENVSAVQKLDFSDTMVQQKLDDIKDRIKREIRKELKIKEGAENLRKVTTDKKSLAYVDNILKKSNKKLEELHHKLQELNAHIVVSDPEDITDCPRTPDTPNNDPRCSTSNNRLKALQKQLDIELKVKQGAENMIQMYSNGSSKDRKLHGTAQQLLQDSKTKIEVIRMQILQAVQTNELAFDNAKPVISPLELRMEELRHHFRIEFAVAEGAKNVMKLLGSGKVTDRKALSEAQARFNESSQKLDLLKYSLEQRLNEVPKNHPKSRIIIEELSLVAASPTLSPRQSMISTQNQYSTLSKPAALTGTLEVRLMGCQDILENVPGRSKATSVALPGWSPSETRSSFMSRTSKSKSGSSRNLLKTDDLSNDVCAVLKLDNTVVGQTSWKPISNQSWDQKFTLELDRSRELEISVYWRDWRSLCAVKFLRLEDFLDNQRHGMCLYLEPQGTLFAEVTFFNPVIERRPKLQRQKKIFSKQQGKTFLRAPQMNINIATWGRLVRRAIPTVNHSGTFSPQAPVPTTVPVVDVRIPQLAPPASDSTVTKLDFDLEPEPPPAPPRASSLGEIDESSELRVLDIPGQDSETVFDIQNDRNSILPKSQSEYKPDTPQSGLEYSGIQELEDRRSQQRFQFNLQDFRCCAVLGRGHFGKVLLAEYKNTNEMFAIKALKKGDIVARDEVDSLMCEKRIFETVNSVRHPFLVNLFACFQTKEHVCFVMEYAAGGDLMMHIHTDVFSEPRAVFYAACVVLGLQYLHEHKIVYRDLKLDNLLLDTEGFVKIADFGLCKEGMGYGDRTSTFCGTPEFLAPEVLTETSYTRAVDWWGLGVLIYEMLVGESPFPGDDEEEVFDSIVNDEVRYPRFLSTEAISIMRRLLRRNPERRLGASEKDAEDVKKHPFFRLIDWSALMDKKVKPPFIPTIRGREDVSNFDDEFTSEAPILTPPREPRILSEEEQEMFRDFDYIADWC
T9 sequence (Q9NYL2 whole entry): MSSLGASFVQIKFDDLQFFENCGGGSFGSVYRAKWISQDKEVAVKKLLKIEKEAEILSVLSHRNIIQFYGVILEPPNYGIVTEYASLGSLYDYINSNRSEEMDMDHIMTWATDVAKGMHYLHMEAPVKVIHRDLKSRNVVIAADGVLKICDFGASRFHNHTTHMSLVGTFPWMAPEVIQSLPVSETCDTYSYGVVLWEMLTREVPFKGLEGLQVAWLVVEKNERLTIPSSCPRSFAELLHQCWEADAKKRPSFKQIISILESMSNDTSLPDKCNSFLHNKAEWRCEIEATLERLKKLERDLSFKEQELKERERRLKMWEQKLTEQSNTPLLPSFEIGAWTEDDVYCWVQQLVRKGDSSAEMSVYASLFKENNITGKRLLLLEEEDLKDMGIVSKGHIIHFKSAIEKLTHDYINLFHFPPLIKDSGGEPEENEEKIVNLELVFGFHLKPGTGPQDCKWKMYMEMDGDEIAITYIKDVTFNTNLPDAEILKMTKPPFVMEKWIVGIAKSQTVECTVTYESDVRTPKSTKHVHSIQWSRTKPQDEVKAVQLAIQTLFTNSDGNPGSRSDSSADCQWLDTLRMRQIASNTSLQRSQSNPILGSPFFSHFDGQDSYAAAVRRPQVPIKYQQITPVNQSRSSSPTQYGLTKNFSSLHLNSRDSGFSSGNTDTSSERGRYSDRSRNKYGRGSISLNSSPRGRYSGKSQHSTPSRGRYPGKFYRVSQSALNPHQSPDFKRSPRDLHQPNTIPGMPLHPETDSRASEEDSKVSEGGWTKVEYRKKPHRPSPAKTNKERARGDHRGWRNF
T4 sequence (Q04912 25-1400): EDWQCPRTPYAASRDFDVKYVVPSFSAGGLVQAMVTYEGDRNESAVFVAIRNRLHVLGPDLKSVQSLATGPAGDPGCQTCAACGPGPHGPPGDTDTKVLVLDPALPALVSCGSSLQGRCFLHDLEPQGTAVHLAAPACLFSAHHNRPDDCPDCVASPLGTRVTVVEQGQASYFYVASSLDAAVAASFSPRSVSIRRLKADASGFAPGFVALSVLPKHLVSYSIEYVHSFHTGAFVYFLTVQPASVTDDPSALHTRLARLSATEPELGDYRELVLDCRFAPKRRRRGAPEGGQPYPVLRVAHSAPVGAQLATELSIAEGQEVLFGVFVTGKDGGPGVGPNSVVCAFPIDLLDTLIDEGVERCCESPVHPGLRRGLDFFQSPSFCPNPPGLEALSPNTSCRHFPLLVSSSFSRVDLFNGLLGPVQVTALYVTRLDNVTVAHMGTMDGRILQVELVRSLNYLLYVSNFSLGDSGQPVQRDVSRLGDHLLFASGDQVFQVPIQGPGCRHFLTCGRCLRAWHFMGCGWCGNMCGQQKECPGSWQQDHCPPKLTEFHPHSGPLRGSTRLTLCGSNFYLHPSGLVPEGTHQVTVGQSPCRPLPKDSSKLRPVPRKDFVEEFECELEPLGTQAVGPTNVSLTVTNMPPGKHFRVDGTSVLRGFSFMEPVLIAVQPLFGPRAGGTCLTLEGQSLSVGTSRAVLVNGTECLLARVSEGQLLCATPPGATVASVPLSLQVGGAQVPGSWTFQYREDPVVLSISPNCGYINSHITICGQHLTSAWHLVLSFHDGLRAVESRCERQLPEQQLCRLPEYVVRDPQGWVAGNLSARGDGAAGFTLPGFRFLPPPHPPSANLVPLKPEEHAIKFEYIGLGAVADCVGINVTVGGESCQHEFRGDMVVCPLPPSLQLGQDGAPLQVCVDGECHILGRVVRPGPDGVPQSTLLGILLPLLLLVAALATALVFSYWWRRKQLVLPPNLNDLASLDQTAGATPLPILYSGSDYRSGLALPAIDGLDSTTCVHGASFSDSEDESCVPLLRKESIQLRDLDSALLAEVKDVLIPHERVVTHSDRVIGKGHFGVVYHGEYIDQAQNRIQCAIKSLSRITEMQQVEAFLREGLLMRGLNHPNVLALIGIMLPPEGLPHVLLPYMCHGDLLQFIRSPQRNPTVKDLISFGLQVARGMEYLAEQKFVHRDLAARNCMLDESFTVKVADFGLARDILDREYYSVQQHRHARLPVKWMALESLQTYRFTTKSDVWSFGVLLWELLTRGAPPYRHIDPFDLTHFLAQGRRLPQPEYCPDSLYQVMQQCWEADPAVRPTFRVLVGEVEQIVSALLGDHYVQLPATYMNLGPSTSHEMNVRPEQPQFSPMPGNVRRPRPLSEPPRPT

Question: N#CCc1ccc(Nc2nc(NCCCN)cc(Nc3cc(C4CC4)[nH]n3)n2)cc1 [KAM] was tested. Which IC50 (ACTR2; [1]) did it give?
Answer: The IC50 was over 10000 nM.

Question: What about the “0.001 uM KAM” value (ACTR2; relative to 0 uM KAM = 0) of the same compound?
Answer: Its value is -0.002123.

Question: What about the “0.01 uM KAM” value (ACTR2; relative to 0 uM KAM = 0) of the same compound?
Answer: The value was 0.01622.

Question: And the “0.1 uM KAM” value (ACTR2; relative to 0 uM KAM = 0)?
Answer: The value was 0.01541.

Question: What about the “1 uM KAM” value (ACTR2; relative to 0 uM KAM = 0) of the same compound?
Answer: Its value is 0.07708.

Question: And the “10 uM KAM” value (ACTR2; relative to 0 uM KAM = 0)?
Answer: The value was 0.05031.

Question: What about the “median Log10 fold change” value (CDK10; 0.001 uM KAM) of the same compound?
Answer: Its value is 0.01311.

Question: What about the “median Log10 fold change” value (CDK10; 0.01 uM KAM) of the same compound?
Answer: The value was -0.05132.

Question: What about the “median Log10 fold change” value (CDK10; 0.1 uM KAM) of the same compound?
Answer: The value was -0.3516.

Question: And the “median Log10 fold change” value (CDK10; 1 uM KAM)?
Answer: The value was -0.4253.

Question: What about the “median Log10 fold change” value (CDK10; 10 uM KAM) of the same compound?
Answer: Its value is -0.3533.

Question: And the IC50 (CDK10; [2])?
Answer: Its IC50 is 130 nM.

Question: What about the “median Log10 fold change” value (LATS1; 0.001 uM KAM) of the same compound?
Answer: Its value is -0.01464.

Question: What about the “median Log10 fold change” value (LATS1; 0.01 uM KAM) of the same compound?
Answer: Its value is -0.02487.

Question: And the “median Log10 fold change” value (LATS1; 0.1 uM KAM)?
Answer: The value was -0.2673.

Question: And the “median Log10 fold change” value (LATS1; 1 uM KAM)?
Answer: The value was -0.4734.

Question: And the “median Log10 fold change” value (LATS1; 10 uM KAM)?
Answer: The value was -0.4675.

Question: What about the IC50 (LATS1; [2]) of the same compound?
Answer: Its IC50 is 206 nM.

Question: And the IC50 (MST1R; [1])?
Answer: Its IC50 is over 10000 nM.

Question: And the “0.001 uM KAM” value (MST1R; relative to 0 uM KAM = 0)?
Answer: The value was -0.1284.

Question: And the “0.01 uM KAM” value (MST1R; relative to 0 uM KAM = 0)?
Answer: The value was -0.04073.

Question: What about the “0.1 uM KAM” value (MST1R; relative to 0 uM KAM = 0) of the same compound?
Answer: Its value is -0.1983.

Question: What about the “1 uM KAM” value (MST1R; relative to 0 uM KAM = 0) of the same compound?
Answer: Its value is -0.07265.

Question: What about the “10 uM KAM” value (MST1R; relative to 0 uM KAM = 0) of the same compound?
Answer: The value was -0.08067.

Question: What about the IC50 (PKN2; [1]) of the same compound?
Answer: Its IC50 is over 10000 nM.

Question: What about the “0.001 uM KAM” value (PKN2; relative to 0 uM KAM = 0) of the same compound?
Answer: Its value is -0.006639.

Question: What about the “0.01 uM KAM” value (PKN2; relative to 0 uM KAM = 0) of the same compound?
Answer: Its value is 0.00337.

Question: And the “0.1 uM KAM” value (PKN2; relative to 0 uM KAM = 0)?
Answer: The value was -0.04124.

Question: And the “1 uM KAM” value (PKN2; relative to 0 uM KAM = 0)?
Answer: The value was -0.08858.

Question: What about the “10 uM KAM” value (PKN2; relative to 0 uM KAM = 0) of the same compound?
Answer: The value was -0.1344.

Question: What about the “median Log10 fold change” value (PTK2B; 0.001 uM KAM) of the same compound?
Answer: The value was -0.01732.

Question: And the “median Log10 fold change” value (PTK2B; 0.01 uM KAM)?
Answer: Its value is -0.009714.

Question: What about the “median Log10 fold change” value (PTK2B; 0.1 uM KAM) of the same compound?
Answer: The value was -0.1905.

Question: And the “median Log10 fold change” value (PTK2B; 1 uM KAM)?
Answer: Its value is -0.4119.

Question: And the “median Log10 fold change” value (PTK2B; 10 uM KAM)?
Answer: Its value is -0.5329.

Question: And the IC50 (PTK2B; [2])?
Answer: The IC50 was 460 nM.

Question: What about the “median Log10 fold change” value (STK10; 0.001 uM KAM) of the same compound?
Answer: The value was -0.02902.

Question: What about the “median Log10 fold change” value (STK10; 0.01 uM KAM) of the same compound?
Answer: The value was -0.03253.

Question: And the “median Log10 fold change” value (STK10; 0.1 uM KAM)?
Answer: Its value is -0.2078.

Question: And the “median Log10 fold change” value (STK10; 1 uM KAM)?
Answer: Its value is -0.4135.

Question: And the “median Log10 fold change” value (STK10; 10 uM KAM)?
Answer: The value was -0.5057.

Question: And the IC50 (STK10; [2])?
Answer: The IC50 was 404 nM.

Question: And the IC50 (UHMK1; [1])?
Answer: The IC50 was over 10000 nM.

Question: What about the “0.001 uM KAM” value (UHMK1; relative to 0 uM KAM = 0) of the same compound?
Answer: Its value is -0.05175.

Question: What about the “0.01 uM KAM” value (UHMK1; relative to 0 uM KAM = 0) of the same compound?
Answer: Its value is -0.019.

Question: What about the “0.1 uM KAM” value (UHMK1; relative to 0 uM KAM = 0) of the same compound?
Answer: Its value is 0.009765.

Question: What about the “1 uM KAM” value (UHMK1; relative to 0 uM KAM = 0) of the same compound?
Answer: The value was -0.08212.

Question: What about the “10 uM KAM” value (UHMK1; relative to 0 uM KAM = 0) of the same compound?
Answer: The value was -0.08774.

Question: What about the “median Log10 fold change” value (ZAK; 0.001 uM KAM) of the same compound?
Answer: Its value is -0.0362.

Question: And the “median Log10 fold change” value (ZAK; 0.01 uM KAM)?
Answer: Its value is -0.03172.

Question: What about the “median Log10 fold change” value (ZAK; 0.1 uM KAM) of the same compound?
Answer: The value was -0.2036.

Question: And the “median Log10 fold change” value (ZAK; 1 uM KAM)?
Answer: Its value is -0.2767.

Question: What about the “median Log10 fold change” value (ZAK; 10 uM KAM) of the same compound?
Answer: Its value is -0.5362.

Question: What about the IC50 (ZAK; [2]) of the same compound?
Answer: The IC50 was 990 nM.

From publication PMC5513037, “Examining the influence of specificity ligands and ATP-competitive ligands on the overall effectiveness of bivalent kinase inhibitors” (Proteome Science, 2017)
